Common to all, as to assay: relative viability (nuclei count vs DMSO), 5 days (fraction); higher = more cells survive
Compound in the experiment “CX-5461 + Trametinib”: Cc1cnc(CNC(=O)c2c(=O)c3ccc(N4CCCN(C)CC4)nc3n3c2sc2ccccc23)cn1 [CX-5461] + CC(=O)Nc1cccc(-n2c(=O)n(C3CC3)c(=O)c3c(Nc4ccc(I)cc4F)n(C)c(=O)c(C)c32)c1 [Trametinib] (partner 0.02 µM)
In outline:
(§1)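 Values are medians from duplicate plates. Each reflects relative viability, defined as the nuclei count of treated wells over that of vehicle wells. Lung cancer cell lines in 1536-well plates were pin-tool dosed one day after seeding with one drug alone or with a fixed anchor-drug dose plus five library-drug doses (not always all listed) in √10 steps, then fixed, stained and imaged at 4× after 5 days.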

Compound in the experiment “CX-5461 + Alpelisib”: Cc1cnc(CNC(=O)c2c(=O)c3ccc(N4CCCN(C)CC4)nc3n3c2sc2ccccc23)cn1 [CX-5461] + Cc1nc(NC(=O)N2CCC[C@H]2C(N)=O)sc1-c1ccnc(C(C)(C)C(F)(F)F)c1 [Alpelisib] (partner 2 µM)
The method in brief: as §1

Compound in the experiment “CX-5461 + Phenformin”: Cc1cnc(CNC(=O)c2c(=O)c3ccc(N4CCCN(C)CC4)nc3n3c2sc2ccccc23)cn1 [CX-5461] + N=C(N)NC(=N)NCCc1ccccc1 [Phenformin] (partner 250 µM)
The method in brief: as §1

Compound in the experiment “IMD-0354 + Vorinostat”: O=C(Nc1cc(C(F)(F)F)cc(C(F)(F)F)c1)c1cc(Cl)ccc1O [IMD-0354] + O=C(CCCCCCC(=O)Nc1ccccc1)NO [Vorinostat] (partner 1 µM)
In outline: as §1

Take LCLC-97TM1: the relative viability was 0.199 with CX-5461 + Trametinib (first compound 0.01 µM); 0.216 in the experiment with CX-5461 + Trametinib (first compound 0.03162 µM); 0.176 in the experiment with CX-5461 + Trametinib (first compound 0.1 µM); 0.193 with CX-5461 + Trametinib (first compound 0.3162 µM); 0.213 with CX-5461 + Trametinib (first compound 1 µM); 0.233 with CX-5461 + Alpelisib (first compound 0.01 µM). For the same cell line, the relative viability with CX-5461 + Alpelisib (first compound 0.03162 µM) was 0.269; with CX-5461 + Alpelisib (first compound 0.1 µM) it was 0.217; in the experiment with CX-5461 + Alpelisib (first compound 1 µM) it was 0.245; in the experiment with CX-5461 + Phenformin (first compound 0.01 µM) it was 0.397; with CX-5461 + Phenformin (first compound 0.03162 µM), 0.479; in the experiment with CX-5461 + Phenformin (first compound 0.1 µM) it was 0.415. Besides, the relative viability with CX-5461 + Phenformin (first compound 1 µM) was determined as 0.384; in the experiment with IMD-0354 + Vorinostat (first compound 0.04 µM) it was 0.879; in the experiment with IMD-0354 + Vorinostat (first compound 0.1265 µM) it was 0.782; in the experiment with IMD-0354 + Vorinostat (first compound 0.4 µM), 0.273; in the experiment with IMD-0354 + Vorinostat (first compound 1.265 µM), 0.0926; with IMD-0354 + Vorinostat (first compound 4 µM) it was 0.123.
LCLC-103H: the relative viability with CX-5461 + Trametinib (first compound 0.01 µM) was 0.629; with CX-5461 + Trametinib (first compound 0.03162 µM) it was 0.687; in the experiment with CX-5461 + Trametinib (first compound 0.1 µM), 0.626; with CX-5461 + Trametinib (first compound 0.3162 µM), 0.674; in the experiment with CX-5461 + Trametinib (first compound 1 µM), 0.663; with CX-5461 + Alpelisib (first compound 0.01 µM), 1.04. The relative viability in the experiment with CX-5461 + Alpelisib (first compound 0.03162 µM) came to 0.925; with CX-5461 + Alpelisib (first compound 0.1 µM), 0.985; in the experiment with CX-5461 + Alpelisib (first compound 0.3162 µM), 1.03; with CX-5461 + Alpelisib (first compound 1 µM), 0.921; with CX-5461 + Phenformin (first compound 0.01 µM), 0.377; with CX-5461 + Phenformin (first compound 0.03162 µM) it was 0.349. Further, the relative viability with CX-5461 + Phenformin (first compound 0.1 µM) stood at 0.326; with CX-5461 + Phenformin (first compound 0.3162 µM) it was 0.364; in the experiment with CX-5461 + Phenformin (first compound 1 µM) it was 0.297; in the experiment with IMD-0354 + Vorinostat (first compound 0.04 µM), 0.79; in the experiment with IMD-0354 + Vorinostat (first compound 0.1265 µM) it was 0.706; with IMD-0354 + Vorinostat (first compound 0.4 µM) it was 0.539. The figures for the relative viability in the experiment with IMD-0354 + Vorinostat (first compound 1.265 µM) and in the experiment with IMD-0354 + Vorinostat (first compound 4 µM) were 0.364 and 0.287, respectively.
In the case of LK-2, the relative viability in the experiment with CX-5461 + Trametinib (first compound 0.01 µM) was found to be 0.83; with CX-5461 + Trametinib (first compound 0.03162 µM) it was 0.818; with CX-5461 + Trametinib (first compound 0.1 µM), 0.834; with CX-5461 + Trametinib (first compound 0.3162 µM), 0.707; in the experiment with CX-5461 + Trametinib (first compound 1 µM), 0.725; with CX-5461 + Alpelisib (first compound 0.03162 µM) it was 1.22. Moreover, the relative viability is 1.37 in the experiment with CX-5461 + Alpelisib (first compound 0.1 µM); 0.864 with CX-5461 + Alpelisib (first compound 1 µM); 0.611 with CX-5461 + Phenformin (first compound 0.01 µM); 0.443 in the experiment with CX-5461 + Phenformin (first compound 0.03162 µM); 0.386 with CX-5461 + Phenformin (first compound 0.1 µM); 0.111 with CX-5461 + Phenformin (first compound 1 µM). Further, the relative viability with IMD-0354 + Vorinostat (first compound 0.04 µM) worked out at 0.291; in the experiment with IMD-0354 + Vorinostat (first compound 0.1265 µM), 0.284; in the experiment with IMD-0354 + Vorinostat (first compound 1.265 µM), 0.158; in the experiment with IMD-0354 + Vorinostat (first compound 4 µM), 0.216.
On to LOU-NH91, for which the relative viability with CX-5461 + Trametinib (first compound 0.01 µM) was found to be 0.796; with CX-5461 + Trametinib (first compound 0.03162 µM), 0.813; in the experiment with CX-5461 + Trametinib (first compound 0.1 µM) it was 0.777; with CX-5461 + Trametinib (first compound 0.3162 µM), 0.613; in the experiment with CX-5461 + Trametinib (first compound 1 µM) it was 0.78; with CX-5461 + Alpelisib (first compound 0.01 µM), 0.812. Also, the relative viability with CX-5461 + Alpelisib (first compound 0.03162 µM) stood at 0.739; with CX-5461 + Alpelisib (first compound 0.1 µM), 0.703; with CX-5461 + Alpelisib (first compound 0.3162 µM), 0.677; in the experiment with CX-5461 + Alpelisib (first compound 1 µM) it was 0.64; in the experiment with CX-5461 + Phenformin (first compound 0.01 µM), 0.801; in the experiment with CX-5461 + Phenformin (first compound 0.03162 µM), 0.7. The relative viability with CX-5461 + Phenformin (first compound 0.1 µM) was determined as 0.697; with CX-5461 + Phenformin (first compound 1 µM), 0.594; with IMD-0354 + Vorinostat (first compound 0.04 µM), 1.03; with IMD-0354 + Vorinostat (first compound 0.1265 µM) it was 0.709; with IMD-0354 + Vorinostat (first compound 0.4 µM), 0.164; with IMD-0354 + Vorinostat (first compound 1.265 µM), 0.173. Also, the relative viability in the experiment with IMD-0354 + Vorinostat (first compound 4 µM) was determined as 0.201.

(Values after the supplement of paper PMC10307832.)
